Results: ChEMBL document CHEMBL4387728, “Synthetic glycopeptides reveal specific binding pattern and conformational change at O-mannosylated position of α-dystroglycan by POMGnT1 catalyzed GlcNAc modification” (Bioorg Med Chem, 2019)
The source made the active and inactive calls. Peptide text beside a SMILES is read from it. * marks the point of attachment. X1 = CC(=O)N[C@H]1[C@H](O[C@H]2[C@@H](O)[C@H](O)[C@@H](CO)O[C@@H]2*)O[C@H](CO)[C@@H](O[C@@H]2O[C@H](CO)[C@H](O)[C@H](O[C@]3(C(=O)O)C[C@H](O)[C@@H](NC(C)=O)[C@H]([C@H](O)[C@H](O)CO)O3)[C@H]2O)[C@@H]1O; GlcNAc(β1-2)αMan = CC(=O)N[C@H]1[C@H](O[C@H]2[C@@H](O)[C@H](O)[C@@H](CO)O[C@@H]2*)O[C@H](CO)[C@@H](O)[C@@H]1O; αMan = OC[C@H]1O[C@H](*)[C@@H](O)[C@@H](O)[C@@H]1O; Hexanoyl(5-oxo) = CC(=O)CCCC(=O)*

What was measured:
[1] = target: Laminin subunit alpha-1 (Homo sapiens) (UniProt P25391); experiment: Binding affinity to biotin-labeled human recombinant laminin-1 at 10 ug/ml in pH 5.6 MES buffer by fluorescence microarray method
Arachis hypogaea = experiment: Binding affinity to biotin-labeled Arachis hypogaea agglutinin in pH 7.4 Tris buffer by fluorescence microarray method
[2] = target: Laminin subunit alpha-1 (Homo sapiens) (UniProt P25391); experiment: Binding affinity to biotin-labeled human recombinant laminin-1 at 10 ug/ml in pH 7.4 Tris buffer by fluorescence microarray method
Datura stramonium = experiment: Binding affinity to biotin-labeled Datura stramonium agglutinin in pH 7.4 Tris buffer by fluorescence microarray method
[3] = test system: Sambucus racemosa subsp. sieboldiana; experiment: Binding affinity to biotin-labeled Sambucus sieboldiana agglutinin in pH 7.4 Tris buffer by fluorescence microarray method
Erythrina crista-galli = experiment: Binding affinity to biotin-labeled Erythrina crista-galli agglutinin in pH 7.4 Tris buffer by fluorescence microarray method
[4] = target: Lactotransferrin (Homo sapiens) (UniProt P02788); experiment: Binding affinity to biotin-labeled lactoferrin (unknown origin) at 10 ug/ml in pH 5.6 MES buffer by fluorescence microarray method
Homo sapiens [5] = organism: Homo sapiens; experiment: Binding affinity to biotin-labeled human recombinant laminin-2 at 10 ug/ml in 5.6 MES buffer by fluorescence microarray method
Triticum aestivum = experiment: Binding affinity to biotin-labeled Wheat germ agglutinin in pH 7.4 Tris buffer by fluorescence microarray method
[6] = Binding affinity to biotin-labeled Agaricus bisporus agglutinin in pH 7.4 Tris buffer by fluorescence microarray method
[7] = target: Lactotransferrin (Homo sapiens) (UniProt P02788); experiment: Binding affinity to biotin-labeled lactoferrin (unknown origin) at 10 ug/ml in pH 7.4 Tris buffer by fluorescence microarray method
Maackia amurensis = experiment: Binding affinity to biotin-labeled Maackia amurensis agglutinin in pH 7.4 Tris buffer by fluorescence microarray method
Canavalia ensiformis = experiment: Binding affinity to biotin-labeled Canavalia ensiformis agglutinin in pH 7.4 Tris buffer by fluorescence microarray method
Homo sapiens [8] = organism: Homo sapiens; experiment: Binding affinity to biotin-labeled human recombinant laminin-2 at 10 ug/ml in pH 7.4 Tris buffer by fluorescence microarray method

Measured: Activity

Lactotransferrin (Homo sapiens), sequence (P02788 whole entry): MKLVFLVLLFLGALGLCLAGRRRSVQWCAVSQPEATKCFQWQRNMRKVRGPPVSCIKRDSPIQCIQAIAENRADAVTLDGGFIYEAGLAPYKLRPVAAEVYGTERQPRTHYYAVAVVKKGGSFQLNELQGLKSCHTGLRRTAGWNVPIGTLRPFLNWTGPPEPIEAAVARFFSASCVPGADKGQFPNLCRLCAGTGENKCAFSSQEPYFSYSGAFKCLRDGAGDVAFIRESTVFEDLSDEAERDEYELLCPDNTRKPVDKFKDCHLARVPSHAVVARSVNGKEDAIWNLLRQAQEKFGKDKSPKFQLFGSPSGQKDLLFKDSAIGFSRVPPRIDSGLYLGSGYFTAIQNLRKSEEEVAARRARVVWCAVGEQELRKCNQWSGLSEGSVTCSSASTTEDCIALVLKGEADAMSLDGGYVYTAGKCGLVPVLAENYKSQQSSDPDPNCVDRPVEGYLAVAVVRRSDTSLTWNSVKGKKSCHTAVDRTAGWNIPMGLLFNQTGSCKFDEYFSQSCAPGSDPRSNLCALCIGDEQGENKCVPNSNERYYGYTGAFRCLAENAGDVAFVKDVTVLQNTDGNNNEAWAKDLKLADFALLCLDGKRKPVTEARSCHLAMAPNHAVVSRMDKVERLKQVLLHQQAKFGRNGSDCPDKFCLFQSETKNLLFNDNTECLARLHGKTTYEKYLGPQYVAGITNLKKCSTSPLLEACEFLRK
Laminin subunit alpha-1 (Homo sapiens), sequence (P25391 whole entry): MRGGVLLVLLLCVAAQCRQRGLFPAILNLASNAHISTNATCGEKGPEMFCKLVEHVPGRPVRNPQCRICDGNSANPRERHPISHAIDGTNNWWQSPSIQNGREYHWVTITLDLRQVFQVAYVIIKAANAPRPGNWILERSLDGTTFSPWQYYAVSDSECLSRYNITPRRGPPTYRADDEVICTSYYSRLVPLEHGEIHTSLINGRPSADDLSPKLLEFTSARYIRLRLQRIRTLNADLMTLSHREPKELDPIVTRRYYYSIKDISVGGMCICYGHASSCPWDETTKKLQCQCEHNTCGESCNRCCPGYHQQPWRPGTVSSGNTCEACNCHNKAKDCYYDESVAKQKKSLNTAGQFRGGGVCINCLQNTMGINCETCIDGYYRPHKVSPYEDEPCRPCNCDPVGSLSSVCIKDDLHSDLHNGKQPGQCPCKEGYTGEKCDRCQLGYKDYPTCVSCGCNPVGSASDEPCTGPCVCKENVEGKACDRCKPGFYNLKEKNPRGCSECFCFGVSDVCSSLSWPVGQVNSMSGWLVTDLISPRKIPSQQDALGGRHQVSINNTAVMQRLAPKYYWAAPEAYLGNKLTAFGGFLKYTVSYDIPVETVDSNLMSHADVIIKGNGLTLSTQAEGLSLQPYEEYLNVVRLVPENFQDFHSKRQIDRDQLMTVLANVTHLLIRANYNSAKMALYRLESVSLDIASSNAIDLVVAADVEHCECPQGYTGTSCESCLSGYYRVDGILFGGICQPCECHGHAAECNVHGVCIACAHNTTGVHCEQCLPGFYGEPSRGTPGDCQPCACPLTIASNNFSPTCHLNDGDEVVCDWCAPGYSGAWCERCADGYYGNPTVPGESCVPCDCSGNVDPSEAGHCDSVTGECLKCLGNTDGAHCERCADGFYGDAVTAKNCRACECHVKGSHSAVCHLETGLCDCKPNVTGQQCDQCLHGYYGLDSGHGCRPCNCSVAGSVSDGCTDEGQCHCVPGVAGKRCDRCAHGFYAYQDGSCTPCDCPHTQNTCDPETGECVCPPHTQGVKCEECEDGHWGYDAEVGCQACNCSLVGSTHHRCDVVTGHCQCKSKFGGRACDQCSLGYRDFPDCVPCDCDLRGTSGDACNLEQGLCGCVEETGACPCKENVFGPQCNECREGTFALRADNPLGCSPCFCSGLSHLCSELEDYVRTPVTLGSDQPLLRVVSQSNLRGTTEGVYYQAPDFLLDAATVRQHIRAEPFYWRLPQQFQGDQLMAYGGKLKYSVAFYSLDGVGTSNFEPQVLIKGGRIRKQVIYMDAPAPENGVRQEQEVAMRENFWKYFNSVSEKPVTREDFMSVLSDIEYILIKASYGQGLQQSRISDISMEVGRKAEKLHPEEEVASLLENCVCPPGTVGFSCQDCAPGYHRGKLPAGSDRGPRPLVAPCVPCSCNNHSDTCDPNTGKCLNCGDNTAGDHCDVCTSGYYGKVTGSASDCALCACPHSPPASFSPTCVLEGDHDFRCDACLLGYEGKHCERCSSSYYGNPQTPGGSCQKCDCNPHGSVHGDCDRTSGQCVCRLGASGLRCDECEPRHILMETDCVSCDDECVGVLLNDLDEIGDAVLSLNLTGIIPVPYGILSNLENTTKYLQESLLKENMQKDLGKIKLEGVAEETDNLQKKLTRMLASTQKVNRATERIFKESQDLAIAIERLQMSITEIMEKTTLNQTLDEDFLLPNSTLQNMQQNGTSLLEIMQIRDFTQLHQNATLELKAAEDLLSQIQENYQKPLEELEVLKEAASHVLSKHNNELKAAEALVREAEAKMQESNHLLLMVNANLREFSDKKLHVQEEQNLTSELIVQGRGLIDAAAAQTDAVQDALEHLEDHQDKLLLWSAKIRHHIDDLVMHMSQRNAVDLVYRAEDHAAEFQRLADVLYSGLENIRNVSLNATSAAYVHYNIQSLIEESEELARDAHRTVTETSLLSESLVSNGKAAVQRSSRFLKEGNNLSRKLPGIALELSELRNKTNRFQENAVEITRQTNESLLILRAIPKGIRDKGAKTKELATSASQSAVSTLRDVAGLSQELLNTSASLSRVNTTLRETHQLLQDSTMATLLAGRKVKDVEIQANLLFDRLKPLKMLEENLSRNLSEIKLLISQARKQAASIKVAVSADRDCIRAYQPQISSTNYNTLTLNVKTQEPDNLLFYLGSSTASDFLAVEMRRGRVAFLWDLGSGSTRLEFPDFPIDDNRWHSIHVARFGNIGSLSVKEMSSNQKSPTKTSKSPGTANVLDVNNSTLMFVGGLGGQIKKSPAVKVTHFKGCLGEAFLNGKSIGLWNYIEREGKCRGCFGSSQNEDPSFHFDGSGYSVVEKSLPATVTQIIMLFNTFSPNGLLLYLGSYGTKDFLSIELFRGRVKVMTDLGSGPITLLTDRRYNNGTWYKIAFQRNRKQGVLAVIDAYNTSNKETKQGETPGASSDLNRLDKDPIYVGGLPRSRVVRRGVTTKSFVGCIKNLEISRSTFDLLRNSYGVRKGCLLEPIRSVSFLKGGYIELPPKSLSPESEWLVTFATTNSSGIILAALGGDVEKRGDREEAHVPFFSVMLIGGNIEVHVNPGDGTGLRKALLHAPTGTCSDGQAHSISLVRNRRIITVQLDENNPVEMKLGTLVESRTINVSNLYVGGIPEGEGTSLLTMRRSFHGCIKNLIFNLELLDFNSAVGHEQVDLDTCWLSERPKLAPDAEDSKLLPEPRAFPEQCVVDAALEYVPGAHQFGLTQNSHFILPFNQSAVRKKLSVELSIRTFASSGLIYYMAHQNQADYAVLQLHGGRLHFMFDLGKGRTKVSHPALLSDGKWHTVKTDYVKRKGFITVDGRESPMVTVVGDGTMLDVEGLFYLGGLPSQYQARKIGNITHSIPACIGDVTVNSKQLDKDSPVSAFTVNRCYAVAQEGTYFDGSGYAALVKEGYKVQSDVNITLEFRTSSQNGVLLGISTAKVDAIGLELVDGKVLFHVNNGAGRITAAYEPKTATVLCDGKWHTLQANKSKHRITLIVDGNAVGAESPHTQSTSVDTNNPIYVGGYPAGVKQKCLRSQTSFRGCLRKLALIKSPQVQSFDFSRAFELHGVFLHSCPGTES

CC[C@H](C)[C@H](NC(=O)[C@H](C)NC(=O)CNC(=O)[C@H](CCCNC(=N)N)NC(=O)[C@@H](NC(=O)CCCC(C)=O)[C@@H](C)O)C(=O)N[C@H](C(=O)N[C@@H](CCC(N)=O)C(=O)N[C@H](C(=O)N1CCC[C@H]1C(=O)N[C@H](C(=O)N[C@@H](CC(C)C)C(=O)NCC(=O)N1CCC[C@H]1C(=O)N[C@H](C(=O)N[C@@H](CCC(N)=O)C(=O)N1CCC[C@H]1C(=O)N[C@H](C(=O)N[C@@H](CCCNC(=N)N)C(=O)N[C@H](C(N)=O)C(C)C)[C@@H](C)O[C@H]1O[C@H](CO)[C@@H](O)[C@H](O)[C@@H]1O[C@@H]1O[C@H](CO)[C@@H](O)[C@H](O)[C@H]1NC(C)=O)[C@@H](C)CC)[C@@H](C)O[C@H]1O[C@H](CO)[C@@H](O)[C@H](O)[C@@H]1O[C@@H]1O[C@H](CO)[C@@H](O)[C@H](O)[C@H]1NC(C)=O)[C@@H](C)O)[C@@H](C)CC ({Hexanoyl(5-oxo)}-TRGAIIQTPT(GlcNAc(β1-2)αMan)LGPIQPT(GlcNAc(β1-2)αMan)RV-NH2)
inactive: Datura stramonium | [7] | Maackia amurensis | Homo sapiens [8]
active: all other assays above

CC[C@H](C)[C@H](NC(=O)[C@H](C)NC(=O)CNC(=O)[C@H](CCCNC(=N)N)NC(=O)[C@@H](NC(=O)CCCC(C)=O)[C@@H](C)O)C(=O)N[C@H](C(=O)N[C@@H](CCC(N)=O)C(=O)N[C@H](C(=O)N1CCC[C@H]1C(=O)N[C@H](C(=O)N[C@@H](CC(C)C)C(=O)NCC(=O)N1CCC[C@H]1C(=O)N[C@H](C(=O)N[C@@H](CCC(N)=O)C(=O)N1CCC[C@H]1C(=O)N[C@H](C(=O)N[C@@H](CCCNC(=N)N)C(=O)N[C@H](C(N)=O)C(C)C)[C@@H](C)O[C@H]1O[C@H](CO)[C@@H](O)[C@H](O)[C@@H]1O[C@@H]1O[C@H](CO)[C@@H](O[C@@H]2O[C@H](CO)[C@H](O)[C@H](O[C@]3(C(=O)O)C[C@H](O)[C@@H](NC(C)=O)[C@H]([C@H](O)[C@H](O)CO)O3)[C@H]2O)[C@H](O)[C@H]1NC(C)=O)[C@@H](C)CC)[C@@H](C)O[C@H]1O[C@H](CO)[C@@H](O)[C@H](O)[C@@H]1O[C@@H]1O[C@H](CO)[C@@H](O[C@@H]2O[C@H](CO)[C@H](O)[C@H](O[C@]3(C(=O)O)C[C@H](O)[C@@H](NC(C)=O)[C@H]([C@H](O)[C@H](O)CO)O3)[C@H]2O)[C@H](O)[C@H]1NC(C)=O)[C@@H](C)O)[C@@H](C)CC ({Hexanoyl(5-oxo)}-TRGAIIQTPT(X1)LGPIQPT(X1)RV-NH2)
inactive: Datura stramonium | [7] | Maackia amurensis | Homo sapiens [8]
active: all other assays above

CC[C@H](C)[C@H](NC(=O)[C@H](C)NC(=O)CNC(=O)[C@H](CCCNC(=N)N)NC(=O)[C@@H](NC(=O)CCCC(C)=O)[C@@H](C)O)C(=O)N[C@H](C(=O)N[C@@H](CCC(N)=O)C(=O)N[C@H](C(=O)N1CCC[C@H]1C(=O)N[C@H](C(=O)N[C@@H](CC(C)C)C(=O)NCC(=O)N1CCC[C@H]1C(=O)N[C@H](C(=O)N[C@@H](CCC(N)=O)C(=O)N1CCC[C@H]1C(=O)N[C@H](C(=O)N[C@@H](CCCNC(=N)N)C(=O)N[C@H](C(N)=O)C(C)C)[C@@H](C)O)[C@@H](C)CC)[C@@H](C)O[C@H]1O[C@H](CO)[C@@H](O)[C@H](O)[C@@H]1O[C@@H]1O[C@H](CO)[C@@H](O[C@@H]2O[C@H](CO)[C@H](O)[C@H](O[C@]3(C(=O)O)C[C@H](O)[C@@H](NC(C)=O)[C@H]([C@H](O)[C@H](O)CO)O3)[C@H]2O)[C@H](O)[C@H]1NC(C)=O)[C@@H](C)O[C@H]1O[C@H](CO)[C@@H](O)[C@H](O)[C@@H]1O[C@@H]1O[C@H](CO)[C@@H](O[C@@H]2O[C@H](CO)[C@H](O)[C@H](O[C@]3(C(=O)O)C[C@H](O)[C@@H](NC(C)=O)[C@H]([C@H](O)[C@H](O)CO)O3)[C@H]2O)[C@H](O)[C@H]1NC(C)=O)[C@@H](C)CC ({Hexanoyl(5-oxo)}-TRGAIIQT(X1)PT(X1)LGPIQPTRV-NH2)
inactive: Datura stramonium | [7] | Maackia amurensis | Homo sapiens [8]
active: all other assays above

CC[C@H](C)[C@H](NC(=O)[C@H](C)NC(=O)CNC(=O)[C@H](CCCNC(=N)N)NC(=O)[C@@H](NC(=O)CCCC(C)=O)[C@@H](C)O)C(=O)N[C@H](C(=O)N[C@@H](CCC(N)=O)C(=O)N[C@H](C(=O)N1CCC[C@H]1C(=O)N[C@H](C(=O)N[C@@H](CC(C)C)C(=O)NCC(=O)N1CCC[C@H]1C(=O)N[C@H](C(=O)N[C@@H](CCC(N)=O)C(=O)N1CCC[C@H]1C(=O)N[C@H](C(=O)N[C@@H](CCCNC(=N)N)C(=O)N[C@H](C(N)=O)C(C)C)[C@@H](C)O[C@H]1O[C@H](CO)[C@@H](O)[C@H](O)[C@@H]1O[C@@H]1O[C@H](CO)[C@@H](O[C@@H]2O[C@H](CO)[C@H](O)[C@H](O[C@]3(C(=O)O)C[C@H](O)[C@@H](NC(C)=O)[C@H]([C@H](O)[C@H](O)CO)O3)[C@H]2O)[C@H](O)[C@H]1NC(C)=O)[C@@H](C)CC)[C@@H](C)O)[C@@H](C)O[C@H]1O[C@H](CO)[C@@H](O)[C@H](O)[C@@H]1O[C@@H]1O[C@H](CO)[C@@H](O[C@@H]2O[C@H](CO)[C@H](O)[C@H](O[C@]3(C(=O)O)C[C@H](O)[C@@H](NC(C)=O)[C@H]([C@H](O)[C@H](O)CO)O3)[C@H]2O)[C@H](O)[C@H]1NC(C)=O)[C@@H](C)CC ({Hexanoyl(5-oxo)}-TRGAIIQT(X1)PTLGPIQPT(X1)RV-NH2)
inactive: Datura stramonium | [7] | Maackia amurensis | Homo sapiens [8]
active: all other assays above

CC[C@H](C)[C@H](NC(=O)[C@H](C)NC(=O)CNC(=O)[C@H](CCCNC(=N)N)NC(=O)[C@@H](NC(=O)CCCC(C)=O)[C@@H](C)O)C(=O)N[C@H](C(=O)N[C@@H](CCC(N)=O)C(=O)N[C@H](C(=O)N1CCC[C@H]1C(=O)N[C@H](C(=O)N[C@@H](CC(C)C)C(=O)NCC(=O)N1CCC[C@H]1C(=O)N[C@H](C(=O)N[C@@H](CCC(N)=O)C(=O)N1CCC[C@H]1C(=O)N[C@H](C(=O)N[C@@H](CCCNC(=N)N)C(=O)N[C@H](C(N)=O)C(C)C)[C@@H](C)O[C@H]1O[C@H](CO)[C@@H](O)[C@H](O)[C@@H]1O)[C@@H](C)CC)[C@@H](C)O[C@H]1O[C@H](CO)[C@@H](O)[C@H](O)[C@@H]1O[C@@H]1O[C@H](CO)[C@@H](O[C@@H]2O[C@H](CO)[C@H](O)[C@H](O[C@]3(C(=O)O)C[C@H](O)[C@@H](NC(C)=O)[C@H]([C@H](O)[C@H](O)CO)O3)[C@H]2O)[C@H](O)[C@H]1NC(C)=O)[C@@H](C)O)[C@@H](C)CC ({Hexanoyl(5-oxo)}-TRGAIIQTPT(X1)LGPIQPT(αMan)RV-NH2)
inactive: Datura stramonium | [7] | Maackia amurensis | Homo sapiens [8]
active: all other assays above
